Assays:
[1] = target: T1, BCN-BSA (Bos taurus, UniProt P02769); experiment: Emission enhancement upon reaction with BCN-BSA; format: biochemical, Bovine; settings: complex 10 μM, protein 3.78 μM, aerated potassium phosphate buffer (50 mM, pH 7.4)/DMSO (99:1, v/v), 298 K
T1 construct: purchased Calbiochem

[2] = tested on: HeLa cells; experiment: Cellular uptake by ICP-MS in HeLa cells; format: cell-based; settings: complex 40 μM, 12 h; for Amount of ruthenium associated with an average HeLa cell: 37° C., ICP-MS, untreated cells; for Uptake by BCN-C10-pretreated cells relative to untreated cells: HeLa cells, BCN-C10 pretreatment
Experimental: The cellular uptake of complexes 1a-5b was examined by ICP-MS. […] This finding should originate from intracellular esterases that convert the ester moieties of complex 3a into negatively charged carboxyl groups, enhancing its intracellular retention. […] Upon incubation of the untreated cells with the complexes, the amounts of ruthenium taken up by an average cell followed the order: 1 b<3b<5b<2b<4b, which seems to be in accordance with their lipophilic character. […] These findings indicate that the accumulation of the complexes 1 b-5b in BCN-C10-pretreated cells is not only associated with their lipophilicity, but also strongly affected by the bioorthogonal labeling of BCN-C10.
More specifically, for determining the cellular uptake of complexes 1a-3a, CHO-K1 cells were incubated in growth medium/DMSO (99:1, v/v) containing the iridium(III) complex (5 μM) in the dark at 37° C. under a 5% CO2 atmosphere for 1 h. The medium was removed, and the cell layer was thoroughly washed with PBS (1 mL×3). The cells were trypsinized by trypsin-EDTA (500 μL) and harvested with PBS. The resultant solution (2 mL) was heated with 65% HNO3 (2 mL) at 70° C. for 2 h, cooled to room temperature, and analyzed using an Elan 6100 DCR-ICP-MS (PerkinElmer SCIEX Instruments). For determining the cellular uptake of complexes 1 b 5b, HeLa cells with or without pretreatment of BCN-C10 were incubated in growth medium/DMSO (99:1, v/v) containing the ruthenium(II) complexes (40 μM) in the dark at 37° C. under a 5% CO2 atmosphere. After incubation for 12 h, the medium was removed and the cells were thoroughly washed with PBS (1 mL×3). The cells were typsinized by trypsin-EDTA (500 μL) and harvested with PBS. The resultant solution (1.5 mL) was heated with 65% HNO3 (1 mL) at 60° C. for 2 h, cooled to room temperature, and analyzed using an Elan 6100 DCR-ICP-MS.

[3] = tested on: HeLa cells; experiment: LSCM imaging of bioorthogonal labeling of BCN-C10 in HeLa cells; format: cell-based; settings: for Subcellular structure stained / Staining pattern over time: BCN-C10-pretreated HeLa cells; for Intracellular emission with BCN-C10 pretreatment: HeLa cells, BCN-C10 200 μM 1 h, λex=488 nm; for Intracellular emission with BCN-C10 pretreatment / Staining pattern over time: complex 40 μM
Description: (“1 b”, “2b”, “3b”, “4b”, and “5b” indicate the complexes of the present invention; “—BCN-C10” means BCN-C10-untreated HeLa cells; “+BCN-C10” means BCN-C10-pretreated HeLa cells).
(“2b” and “5b” indicate the complexes of the present invention; “—BCN-C10” means BCN-C10-untreated HeLa cells; “+BCN-C10” means BCN-C10-pretreated HeLa cells).
The bioorthogonal labeling properties of complexes 1a-5b were investigated using CHO-K1 or HeLa cells with or without pretreatment of an exogenous molecule BCN-010, i.e., a BCN-modified decane molecule. The intracellular distribution of BCN-C10 was then imaged using laser scanning confocal microscopy (LSCM).
In the study of the ruthenium(II) nitrone complexes, live HeLa cells were treated with BCN-C10 (200 μM) for 1 h, thoroughly washed with PBS, then incubated with complexes 1b-5b (40 μM) for 12 h, and finally imaged by LSCM. More specifically, HeLa cells were incubated in growth medium/DMSO (99:1, v/v) containing BCN-C10 (200 μM) in the dark at 37° C. under a 5% CO2 atmosphere for 1 h. After treatment, the medium was removed, the cells were washed thoroughly with PBS (1 mL×3), and then incubated in growth medium/DMSO (99:1, v/v) containing the ruthenium(II) complex (40 μM) in the dark at 37° C. under a 5% CO2 atmosphere. After incubation for 3, 6, 12, or 24 h, the culture medium was removed and the cell was were washed with PBS (1 mL×3). The coverslip was mounted onto a sterilized glass slide and then imaging was performed using a Leica TCS SPE confocal microscope with an oil immersion 63× objective len and an excitation wavelength at 488 nm. […] Additionally, BCN-C10-pretreated cells were incubated with complexes 2b and 5b for different time periods (3, 6, 12, and 24 h) (FIG. 6). […] The regioselective staining is assumed to be closely related to the subcellular distribution of BCN-C10, and the lipophilicity and reactivity of the complexes.

T1 sequence (P02769 25-607): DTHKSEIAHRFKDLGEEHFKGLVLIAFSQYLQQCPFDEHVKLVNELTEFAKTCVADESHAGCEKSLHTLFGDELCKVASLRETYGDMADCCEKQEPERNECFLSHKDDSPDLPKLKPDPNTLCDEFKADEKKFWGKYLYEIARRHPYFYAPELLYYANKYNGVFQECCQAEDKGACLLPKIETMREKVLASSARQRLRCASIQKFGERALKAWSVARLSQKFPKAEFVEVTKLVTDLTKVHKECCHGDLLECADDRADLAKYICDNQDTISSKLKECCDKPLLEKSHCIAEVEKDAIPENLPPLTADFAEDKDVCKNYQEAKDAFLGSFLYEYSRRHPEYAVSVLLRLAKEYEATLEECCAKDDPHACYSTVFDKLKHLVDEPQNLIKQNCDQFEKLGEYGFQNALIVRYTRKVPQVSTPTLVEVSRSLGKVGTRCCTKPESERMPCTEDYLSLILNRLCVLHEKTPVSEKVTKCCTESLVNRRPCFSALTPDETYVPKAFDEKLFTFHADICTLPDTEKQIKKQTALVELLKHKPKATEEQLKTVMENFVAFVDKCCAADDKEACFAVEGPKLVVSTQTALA

SMILES	I/Io BCN-BSA [1]	Amount of ruthenium associated with an average HeLa cell [2]	Subcellular structure stained [3]	Intracellular emission with BCN-C10 pretreatment ([3]; 12 h)	Uptake by BCN-C10-pretreated cells relative to untreated cells [2]	Staining pattern over time ([3]; 6 h)	Staining pattern over time ([3]; 12 h)	Staining pattern over time ([3]; 24 h)
Cc1ccnc(-c2cc(/C=[N+](/C)[O-])ccn2)c1.F[P-](F)(F)(F)(F)F.F[P-](F)(F)(F)(F)F.[Ru+2].c1ccc(-c2ccccn2)nc1.c1ccc(-c2ccccn2)nc1 [Complex 1b]	10.7	0.31 ± 0.01 fmol	punctate cell surface staining	weak but enhanced emission	–	–	–	–
CCCCNC(=O)c1ccnc(-c2cc(C(=O)NCCCC)ccn2)c1.CCCCNC(=O)c1ccnc(-c2cc(C(=O)NCCCC)ccn2)c1.Cc1ccnc(-c2cc(/C=[N+](/C)[O-])ccn2)c1.F[P-](F)(F)(F)(F)F.F[P-](F)(F)(F)(F)F.[Ru+2] [Complex 2b]	16.9	1.32 ± 0.08 fmol	cell membrane staining	intense subcellular staining	8.89 fold	selectively lighted up the cell surface	intense cell membrane staining plus some sharp vesicles in the cytoplasmic regions adjacent to cell membrane	intense granular staining in the cytoplasm
Cc1ccnc(-c2cc(/C=[N+](\[O-])c3ccccc3)ccn2)c1.F[P-](F)(F)(F)(F)F.F[P-](F)(F)(F)(F)F.[Ru+2].c1ccc(-c2ccccn2)nc1.c1ccc(-c2ccccn2)nc1 [Complex 5b]	9.6	1.09 ± 0.03 fmol	cell membrane staining	intense subcellular staining	2.48 fold	selectively lighted up the cell surface	intense cell membrane staining plus some sharp vesicles in the cytoplasmic regions adjacent to cell membrane	intense granular staining in the cytoplasm
